Reference: US6627749B1 (University of Iowa Research Foundation, priority 1999, dated 2003)
Values after ≈ are worked out from the molar mass of the structure shown.

Tests used:
[1] = Stability of CPT standard solutions (HPLC); type: physicochemical
Experimental: The lactone and carboxylate forms of CPT were analyzed by HPLC using a fully-automated Shimadzu LC-10 system, equipped with a fluorescence detector, a Supelco's C-18 discovery column (15 cm×4.6 mm, 5 am Supelco Park, Bellefonte, Pa.) and a guard column. The detector was set at an excitation wavelength of 370 nm and an emission wavelength of 435 nm. The mobile phase consisted of a 73.27 (v/v) mixture of triethylamine-acetate buffer (0.1% triethylamine, adjusted with glacial acetic acid to pH 5.5) and acetonitrile. A flow rate of 1 ml/min and an injection volume of 20 μl were used in the analysis. To avoid carryover between successive injections, the injector was washed thoroughly with methanol. The standard solutions of CPT-lactone and CPT-carboxylate were made by dilution of the CPT stock solution in dimethylsulfoxide (DMSO) with 0.02M HC1 and 0.02M NaOH solutions, respectively. The analysis of the CPT-lactone was performed immediately, whereas that of CPT-carboxylate 30 min. after making the solution. Standard solutions of CPT-lactone and CPT-carboxylate were stable for two weeks at 4° C. and for 24 hours at room temperature.

[2] = In-vitro dissolution of CPT in pH 7.4 phosphate buffer (dialysis bag); type: physicochemical; details: 0.02% Tween 80, 37° C., sink conditions
Experimental: The dissolution of CPT from microspheres and physical mixtures and that of free CPT was evaluated in pH 7.4 phosphate buffer solution (composition: 137 mM NaCl, 3 mM KC1, 8 mM Na2HPO4, 1 mM KH2PO4), containing 0.02% Tween 80 at 37° C. under sink conditions. Briefly, an accurately weighed amount of microspheres was suspended in the buffer medium. The suspension was placed in a dialysis bag (MWCO […], Snakeskin™) and then dialyzed against the buffer solution. 1 ml of the release medium was removed at the predetermined time intervals. To maintain the sink condition, an equal volume of the fresh buffer solution was immediately added to the release medium. The concentrations of both lactone and carboxylate forms of CPT in the release media were determined by HPLC assay.

[3] = test system: human-derived lymphoid RPMI-8402 leukemia cells; assay: Cytotoxicity, inhibition of DNA synthesis (3H-thymidine); type: cell-based; details: lymphoid RPMI-8402 cells
Experimental: (§1) The cytotoxicity of free CPT and OC—(COOH 20%)/CPT microspheres was evaluated against human-derived lymphoid RPMI-8402 (FIG. 7) and myeloid THP-1 leukemia cell lines (see FIG. 6). […] The cells were diluted to 1×10^6 cells/ml in RPMI 1640 media, supplemented with 1% pen/strep, 1% glutamine, and 10% fetal calf serum, and plated in triplicate at the 2×10^5 cells/well in a 96 well plate. CPT or OC—(COOH 20%)/CPT microspheres were then added, at the equal concentrations, to the wells and the cells were incubated for 20 hours at 37° C. and in 5% CO2. Radiolabeled thymidine (0.04 μci/well) was added to each well at 20 hours and 24 hours. The cells were harvested onto a Reeves Angel 934 AH filter using a Brandel automated cell harvester. Radiolabeled DNA was then measured as disintegration per minute (dpm) by scintillation spectroscopy.

[4] = test system: human-derived myeloid THP-1 leukemia cells; assay: as above; type: cell-based; details: myeloid THP-1 cells
Experimental: as §1

SMILES | stability of standard solution ([1]; at 4° C.) | stability of standard solution ([1]; at room temperature) | T-50 (hrs), dissolution of CPT [2] | ED50 [3] | ED50 [4]
CCC(O)(C(=O)O)c1cc2n(c(=O)c1CO)Cc1cc3ccccc3nc1-2 (stereo not shown) [CPT-carboxylate] | two weeks | 24 h | – | – | –
CC[C@@]1(O)C(=O)OCc2c1cc1n(c2=O)Cc2cc3ccccc3nc2-1 [CPT-lactone] | two weeks | 24 h | – | – | –
CC[C@@]1(O)C(=O)OCc2c1cc1n(c2=O)Cc2cc3ccccc3nc2-1 [Free CPT, 20(S)-camptothecin] | – | – | 118.6 h | 0.025 µg/mL (≈ 0.0718 µM) | 0.75 µg/mL (≈ 2.15 µM)
